From PMC3013143 (PLoS ONE, 2010) come the findings set out here.

One data set can be described thus: human serum. Conditions: 37°C, up to 2 h.
The test system of data set [1] is CAIX positive SKRC 52 cells. The data set is classed as cell-based, human. To be noted: 24 h. The procedure:
For binding experiments 3×10^5 CAIX positive SKRC 52 cells were seeded into 6-well plates and cultivated in 3 mL of incubation medium at 37°C for 24 h. After cell blocking with RPMI 1640 (without FCS) containing 1% BSA, the medium was replaced with 1 mL of fresh medium (without FCS) containing 0.5–1.5×10^6 cpm of ^125I-labeled peptide and incubation was performed for time periods varying from 10 min to 6 h at 37°C. To determine specific versus nonspecific binding, the cells were incubated with the unlabeled CaIX-P1 peptide at concentrations varying from 10^−4 to 10^−10 mol/L. Octreotide was used as negative control competitor. After incubation the medium was removed and the cells were washed three times with 1 mL ice cold PBS in order to remove the unbound radiolabeled peptide. Subsequently, the cells were lysed with 0.5 mL NaOH 0.3 mol/L and the radioactivity was measured with a γ-counter. Bound radioactivity was calculated as percentage applied dose per 10^6 cells. Binding experiments were also performed on HCT 116 cells and on human umbilical vein endothelial cells (HUVEC) at various cell densities. CAIX negative CaKi-2 cells were used as negative control.

A short description of a further data set: Stability in human serum. The data set is classed as in vitro ADME. To be noted: 37°C. The method, then: The stability of CaIX-P1 was investigated in human serum. The peptide was incubated at 37°C in human serum at a concentration of 10^−4 mol/L. At time points varying from 5 min to 2 h aliquots were taken, mixed with equal volume acetonitrile to precipitate serum proteins and centrifuged for 5 min at 13,000 rpm. The supernatant was analyzed with HPLC on a Chromolith Performance RP-18e 100×4.6 mm column (Merck) using a linear gradient of water and acetonitrile containing 0.1% trifluoroacetic acid. Samples of CaIX-P1 and its fragments in human serum were isolated and analyzed by MALDI-TOF mass spectrometry.

The target of data set [2] is T1, recombinant extracellular domain of human CAIX (Homo sapiens, UniProt Q16790).
T1 construct: Fc (Fc gamma, from pSEC-EGP-2-Fcγ vector) (C); made in house; host or cells: Flp-In-293 human embryonic kidney cells (secreted into medium)
As to the kind of experiment: Binding of 125I-labeled CaIX-P1 on immobilized recombinant extracellular domain of CAIX. To be noted: co-incubation of ^125I-CaIX-P1 with unlabeled CaIX-P1 at 10^−4 M, p<0.05, n = 3; read-out: Binding inhibition of the radioligand. The method, then: Binding of ^125I-labeled CaIX-P1 was performed on immobilized recombinant extracellular domain of human CAIX and of EGFR. For immobilization the target proteins CAIX and EGFR were incubated at a concentration of 50 nM in 24-well plates for 24 h. Thereafter, the plates were washed three times with 500 µl PBS pH 7.4. Incubation with ^125I-CaIX-P1 was performed in 500 µl PBS pH 7.4 for 30 min. After incubation the plates were washed three times with 500 µl ice cold PBS pH 7.4. The target proteins were degraded with 500 µl NaOH 0.3 mol/L and the radioactivity was counted with a γ-counter. Bound radioactivity was calculated as percentage applied dose. In order to evaluate the specificity of the radioligand binding, competition experiments with the unlabeled CaIX-P1 peptide at a concentration of 10^−4 M were carried out.

No end group written: not given here.

As for YNTNHVPLSPKY, in “human serum”, the cleaved bond result is “tyrosine1-N2, major, 10 min”.

YNTNHVPLSPKY [CaIX-P1] had an IC50 in data set [1] of 1750 ± 490 nM. Also, in the data set “Stability in human serum” (10^−4 mol/L, appeared after 10 min, HPLC isolation and MALDI-TOF mass spectrometry), the “Main product of serum degradation” value was “lacking the N-terminal tyrosine”. In addition, in the data set “Stability in human serum” (peptide 10^−4 mol/L, aliquots 5 min to 2 h, acetonitrile precipitation, HPLC), the half-life was about 25 min. Besides, in data set [2], the inhibition at 100 µM was 93%.
